In article PMC10224544, “Synthesis, Structural Elucidation and Pharmacological Applications of Cu(II) Heteroleptic Carboxylates” (Pharmaceuticals, 2023):

Key:
DPPH scavenging assay [1] = settings: for DPPH Free Radical Scavenging Ability: mean ± S.E.M, n = 3
Source text: The antioxidant potential of the free acids and their Cu(II) carboxylates was explored via the DPPH method using ascorbic acid as a reference. The DPPH, with a single unpaired electron, is capable of accepting a hydrogen or electron and gives a strong absorption at 517 nm. The absorption generally decreases when it accepts a hydrogen or electron from an antioxidant, forming a stable molecule. The results given in Table 5 indicate that the compounds under study show a moderate level of antioxidant potential. This activity may be attributed to the various structural and electronic factors like coordination geometry, redox properties, chelate ring size, degree of unsaturation, etc.. The transfer of proton or electron from an antioxidant to DPPH results in the formation of species that undergo other reactions like coupling, fragmentation, and addition, which affect the rate and stoichiometry of the reaction.
The compounds under study were subjected to DPPH scavenging ability test as per cited literature. A 0.004% solution of reagent DPPH was added to the different concentrations of tested compounds (i.e., 125, 250, 500 and 1000 μg/mL) and the reaction mixture was incubated subsequently for about thirty minutes in dark. Ascorbic acid was used as positive control. The UV-3000 O.R.I. Germany was used to record the change in absorption of the reaction mixture at 517 nm and the percentage scavenging ability of the compounds under study was determined using formula: % scavenging activity =Absorbance of control−Absorbance of compounds /Absorbance of control×100
The experiments were repeated thrice. The GraphPad Prism® (version 4.0, Sandiego, CA, USA) was used to calculate the IC50 values.

[2] = Hydrogen peroxide scavenging assay; settings: for H2O2 free radical scavenging ability: mean ± S.E.M, n = 3
Protocol: In addition to DPPH the ligand acids and their complexes were also evaluated for their peroxide scavenging ability test. Hydrogen peroxide (H2O2) is a biologically important, non-radical reactive oxygen species (ROS) that can influence several cellular processes. It is a weak oxidizing agent and can inactivate a few enzymes directly, usually via oxidation of essential thiol (-SH) groups. It can cross cell membranes rapidly, and inside the cell, H2O2 probably reacts with Fe^2+ (and possibly Cu^2+) ions to form the hydroxyl radical, which may be the origin of many of its toxic effects. It is, therefore, biologically advantageous for cells to control the amount of hydrogen peroxide that is allowed to accumulate.
The ligand acids and their Cu(II) carboxylates were further subjected to H2O2 scavenging ability test potential by following the procedure as per cited literature. A 2 mM solution of H2O2 was made in 50 mM phosphate buffer having a pH 7.4. In the next step, 0.1 mL of the screened compounds was added to the 0.3 mL (50 mM) of phosphate buffer, then 0.6 mL of H2O2 was added and the solution was vortexed. After following the incubation period of 10 min, the absorption was 230 nm in comparison to the blank.

[3] = target: acetylcholinesterase (AChE) (Electrophorus electricus, UniProt O42275); assay: biochemical; assay type: biochemical; settings: for Inhibition of Acetylcholinesterase (%AChE Activity): n = 3
Protocol: The synthesized compounds were evaluated for acetylcholinesterase (ACh) and butyrylcholinesterase (BCh) enzyme inhibitory activities.
(§1) The enzymes acetylcholinesterase (AChE) and butyrylcholinesterase (BChE) play an important role in the transfer of signals and physiological function. They assist acetylcholine to hydrolyze and produce choline and acetyl group in synaptic region. So, they are considered as targets in the management of Alzheimer’s disease. Herein, the compounds under study were evaluated for their potential to inhibit acetylthiocholine iodide (AChI) and butyrylthiocholine iodide (BChI) enzymes.
(§2) The well-known Ellman’s assay was implemented to evaluate the inhibitory potential using acetylthiocholine iodide (AChI) and butyrylthiocholine iodide (BChI) as substrates, respectively. The basic principle of the assay is the hydrolysis of acetylthiocholine iodide and butyrylthiocholine iodide by their corresponding enzymes, resulting in the formation of 5-thio-2-nitrobenzoate anion.
(§3) To carry out the assay, 0.1 M buffer solution with pH 8 was prepared as per the cited literature where the pH was adjusted using KOH (potassium hydroxide). Using the freshly prepared buffer and following the dilution, final concentrations of 0.03 U/mL for AChE (518 U/mg solid) and 0.01 U/mL for BChE (7–16 U/mg) were obtained. […] After that, the final solution of each of the AChE and BChE was prepared in distilled water in the presence of […] DTNB and were stored at 8 °C. The experiment was performed by taking 205 µL of inhibitor (tested compound) along with 5 µL of prepared solutions of enzymes, followed by the addition of 5 μL DTNB reagent. They were then incubated for about 15 min in a water bath at a temperature of 30 °C. Later on, 5 µL substrate solution was added to them which were subjected to absorption check at 412 nm. […] The temperature of the spectrophotometer was adjusted at 30 °C and then, following the reaction time of 4 min, the absorbance values were noted after regular intervals. The experiment was repeated, and change in absorption with time was used to calculate the percentage activity of enzyme and enzyme inhibitor [59]. The p values, or calculated probability levels, are categorized as: 5% (p < 0.05), 1% (p < 0.01) and 0.1% (p < 0.001). p < 0.05 means statistically significant and p < 0.001 means highly statistically significant.

[4] = target: butyrylcholinesterase (BChE) (Equus caballus, UniProt P81908); assay: biochemical; settings: for inhibition of butyrylcholinesterase (% BChE activity): n = 3
Protocol: as §1, §2, §3

DPPH scavenging assay [5] = settings: Comp. Conc. 62.5 µg/mL; mean ± S.E.M, n = 3

acetylcholinesterase (AChE), sequence (O42275 24-633): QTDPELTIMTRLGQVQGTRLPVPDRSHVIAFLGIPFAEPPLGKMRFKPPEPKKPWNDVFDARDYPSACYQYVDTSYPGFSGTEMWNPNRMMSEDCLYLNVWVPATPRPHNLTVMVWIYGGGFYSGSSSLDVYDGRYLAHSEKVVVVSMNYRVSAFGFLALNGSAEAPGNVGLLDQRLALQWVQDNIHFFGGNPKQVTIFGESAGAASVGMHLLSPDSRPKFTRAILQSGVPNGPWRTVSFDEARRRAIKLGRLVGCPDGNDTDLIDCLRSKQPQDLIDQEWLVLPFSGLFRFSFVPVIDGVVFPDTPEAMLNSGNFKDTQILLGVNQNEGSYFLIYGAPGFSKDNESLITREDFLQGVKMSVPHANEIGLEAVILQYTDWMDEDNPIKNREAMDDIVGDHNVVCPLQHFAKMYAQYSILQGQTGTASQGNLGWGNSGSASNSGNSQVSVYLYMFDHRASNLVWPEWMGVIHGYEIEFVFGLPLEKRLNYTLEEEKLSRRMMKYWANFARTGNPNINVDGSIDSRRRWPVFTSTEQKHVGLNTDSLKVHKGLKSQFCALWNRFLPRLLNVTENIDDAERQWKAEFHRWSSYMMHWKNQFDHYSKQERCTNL
butyrylcholinesterase (BChE), sequence (P81908 whole entry): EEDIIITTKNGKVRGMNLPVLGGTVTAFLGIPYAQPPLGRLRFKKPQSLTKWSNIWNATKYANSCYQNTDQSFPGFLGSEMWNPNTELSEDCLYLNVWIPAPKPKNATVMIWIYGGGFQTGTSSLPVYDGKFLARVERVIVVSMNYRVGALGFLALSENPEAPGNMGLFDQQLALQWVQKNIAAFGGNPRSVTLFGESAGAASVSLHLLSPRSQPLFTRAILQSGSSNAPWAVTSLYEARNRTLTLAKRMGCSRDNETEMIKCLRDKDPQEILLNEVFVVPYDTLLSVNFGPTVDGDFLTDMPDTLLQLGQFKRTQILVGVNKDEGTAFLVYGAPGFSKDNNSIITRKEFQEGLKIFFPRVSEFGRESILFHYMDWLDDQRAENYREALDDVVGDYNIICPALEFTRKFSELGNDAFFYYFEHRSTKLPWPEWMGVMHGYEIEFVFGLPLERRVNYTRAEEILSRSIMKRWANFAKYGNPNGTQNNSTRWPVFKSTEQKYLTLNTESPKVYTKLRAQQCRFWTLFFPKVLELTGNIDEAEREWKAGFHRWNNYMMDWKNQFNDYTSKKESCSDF

SMILES | IC50, DPPH Free Radical Scavenging Ability (DPPH scavenging assay [1]) [µg/mL] | DPPH Free Radical Scavenging Ability (DPPH scavenging assay [1]; Comp. Conc. 125 µg/mL) [%] | DPPH Free Radical Scavenging Ability (DPPH scavenging assay [1]; Comp. Conc. 250 µg/mL) [%] | DPPH Free Radical Scavenging Ability (DPPH scavenging assay [1]; Comp. Conc. 500 µg/mL) [%] | DPPH Free Radical Scavenging Ability (DPPH scavenging assay [1]; Comp. Conc. 1000 µg/mL) [%] | IC50, H2O2 free radical scavenging ability [2] [µg/mL] | H2O2 free radical scavenging ability ([2]; Comp. Conc. 62.5 µg/mL) [%] | H2O2 free radical scavenging ability ([2]; Comp. Conc. 125 µg/mL) [%] | H2O2 free radical scavenging ability ([2]; Comp. Conc. 250 µg/mL) [%] | H2O2 free radical scavenging ability ([2]; Comp. Conc. 500 µg/mL) [%] | H2O2 free radical scavenging ability ([2]; Comp. Conc. 1000 µg/mL) [%] | Inhibition of Acetylcholinesterase (%AChE Activity) ([3]; Comp. Conc. 62.5 µg/mL) [%] | Inhibition of Acetylcholinesterase (%AChE Activity) ([3]; Comp. Conc. 125 µg/mL) [%] | Inhibition of Acetylcholinesterase (%AChE Activity) ([3]; Comp. Conc. 250 µg/mL) [%] | Inhibition of Acetylcholinesterase (%AChE Activity) ([3]; Comp. Conc. 500 µg/mL) | Inhibition of Acetylcholinesterase (%AChE Activity) ([3]; Comp. Conc. 1000 µg/mL) [%] | IC50, inhibition of butyrylcholinesterase [4] [µg/mL] | inhibition of butyrylcholinesterase (% BChE activity) ([4]; Comp. Conc. 62.5 µg/mL) [%] | inhibition of butyrylcholinesterase (% BChE activity) ([4]; Comp. Conc. 125 µg/mL) [%] | inhibition of butyrylcholinesterase (% BChE activity) ([4]; Comp. Conc. 250 µg/mL) [%] | further results
N#Cc1ccncc1.N#Cc1ccncc1.O=C([O-])Cc1cccc(Cl)c1.O=C([O-])Cc1cccc(Cl)c1.O=C([O-])Cc1cccc(Cl)c1.O=C([O-])Cc1cccc(Cl)c1.[Cu+2].[Cu+2] [Complex 5, Cu2(3-ClC6H4COO)4(4-CNPy)2] | 20.29 | 64.78 ± 0.60 | 71.46 ± 0.53 | 77.68 ± 0.63 | 85.72 ± 0.79 | 27.35 | 59.81 ± 0.65 | 66.65 ± 0.78 | 75.70 ± 0.62 | 80.76 ± 0.63 | 84.83 ± 0.62 | 69.91 ± 1.30 | 71.76 ± 0.61 | 76.87 ± 1.27 | 82.13 ± 0.20 ^⸸ % | 89.20 ± 0.23 | 04 | 72.74 ± 0.61 | 76.54 ± 0.50 | 81.48 ± 0.64 | IC50, Inhibition of Acetylcholinesterase [3]: 5 µg/mL; inhibition of butyrylcholinesterase (% BChE activity) ([4]; Comp. Conc. 500 µg/mL): 86.86 ± 0.60 %; inhibition of butyrylcholinesterase (% BChE activity) ([4]; Comp. Conc. 1000 µg/mL): 91.62 ± 0.74 %; DPPH Free Radical Scavenging Ability (DPPH scavenging assay [5]): 55.56 ± 0.52 %
O=C([O-])Cc1cccc(Cl)c1.O=C([O-])Cc1cccc(Cl)c1.O=C([O-])Cc1cccc(Cl)c1.O=C([O-])Cc1cccc(Cl)c1.Oc1ccncc1.Oc1ccncc1.[Cu+2].[Cu+2] [Complex 6, Cu2(3-ClC6H4COO)4(4-OHPy)2] | 14.51 | 63.47 ± 0.49 | 68.75 ± 0.14 | 75.59 ± 0.30 | 80.85 ± 0.18 | 10.65 | 61.35 ± 0.18 | 66.20 ± 0.15 | 73.42 ± 0.11 | 78.62 ± 0.17 | 83.53 ± 0.20 | 58.74 ± 0.68 | 62.70 ± 1.25 | 67.05 ± 0.75 | 72.32 ± 1.06 % | 77.34 ± 0.98 | 42 | 57.00 ± 1.15 | 61.67 ± 0.89 | 65.00 ± 0.58 | inhibition of butyrylcholinesterase (% BChE activity) ([4]; Comp. Conc. 500 µg/mL): 72.03 ± 0.23 %; inhibition of butyrylcholinesterase (% BChE activity) ([4]; Comp. Conc. 1000 µg/mL): 75.33 ± 0.49 %; DPPH Free Radical Scavenging Ability (DPPH scavenging assay [5]): 58.12 ± 0.34 %
